Measurements published in paper PMC11671597, “The anticancer effect of metformin targets VDAC1 via ER-mitochondria interactions-mediated autophagy in HCC” (Experimental & Molecular Medicine, 2024).

Target: voltage-dependent anion channel 1 (VDAC1) (Homo sapiens, UniProt P21796)
Experiment: microscale thermophoresis (MST); supported by dose-dependent DARTS in HepG2 mitochondrial lysate (EC50 […]) and loss of protection in D9A/E203A mutants
Assay type: binding

Sequence of voltage-dependent anion channel 1 (VDAC1) (P21796 2-283): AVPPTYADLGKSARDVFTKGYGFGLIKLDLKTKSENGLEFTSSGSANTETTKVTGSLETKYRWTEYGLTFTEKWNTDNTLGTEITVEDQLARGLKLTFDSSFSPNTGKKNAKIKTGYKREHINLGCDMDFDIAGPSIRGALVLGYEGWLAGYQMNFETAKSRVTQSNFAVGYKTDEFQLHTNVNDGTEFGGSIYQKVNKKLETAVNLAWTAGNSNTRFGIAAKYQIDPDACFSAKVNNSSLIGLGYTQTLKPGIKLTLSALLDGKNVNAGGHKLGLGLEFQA

Kd: 204 µM
SMILES: CN(C)C(=N)N=C(N)N [Metformin]
